Experiment: mean ionic activity coefficient (dimensionless); mn = molality of the nth substance listed, in mol/kg
Details: 101 kPa, Liquid, galvanic cell

CCn1cc[n+](C)c1.[Br-] [1-ethyl-3-methylimidazolium bromide] + O
mean ionic activity coefficient
Details	298.2 K	308.2 K
m1 = 0.01	0.888	0.895
m1 = 0.0199	0.846	0.859
m1 = 0.0397	0.791	0.813
m1 = 0.0592	0.753	0.781
m1 = 0.0785	0.723	0.757
m1 = 0.1001	0.696	0.735
m1 = 0.1995	0.611	0.665
m1 = 0.3996	0.523	0.585
m1 = 0.6004	0.474	0.534
m1 = 0.7996	0.441	0.497
m1 = 1.001	0.417	0.467
m1 = 1.2	0.398	0.442
m1 = 1.4	0.382	0.42
m1 = 1.6	0.367	0.4
m1 = 1.8	0.354	0.382
m1 = 2	0.341	0.366
m1 = 2.2	–	0.351
